Experiments:
[1] = metabolites are not fluorescent; cited from earlier work
[2] = disappearance of ICG from blood after high dose intravenous injection (calibration sequence); format: in vivo, New Zealand White rabbits; conditions: rabbit, 1 mg ICG intravenously, metabolized by the liver
Description: Experiments have been performed in New Zealand White rabbits (2.8-3.5 Kg) anesthetized with halothane and artificially ventilated with an oxygen-enriched gas mixture (FiO2˜0.4) to achieve a SaO2 above 99% and an end-tidal CO2 between 28 and 32 mm Hg (FIG. 4). The left femoral artery was cannulated for measurement of the arterial blood pressure throughout the procedure. A small catheter was positioned in the left brachial vein to inject the indicator, ICG. Body temperature was maintained with a heat lamp.
Calibration of the transcutaneous fluorescence intensity measured at the level of the animals' ear as a function of ICG concentration in blood was performed as follows. […]
As the liver metabolizes ICG, the blood ICG concentration decreases back to 0 in about 20 minutes. […] The fluorescence intensity of the blood in the cuvette was converted to a measurement of concentration using the known standard curve of fluorescence intensity versus ICG concentration established for the cuvette. ICG fluorescence was measured at the level of the ear at the exact time of the blood sample withdrawal. […]
For the range of concentrations used in these studies, ICG concentration and transcutaneous fluorescence were linearly related. The calibration line passes through the origin of the axes since there is no measured fluorescence when the ICG blood concentration is 0.

[3] = test system: blood proteins; conditions: stated as typical; cited from earlier work

SMILES: CC1(C)C(/C=C/C=C/C=C/C=C2\N(CCCCS(=O)(=O)O)c3ccc4ccccc4c3C2(C)C)=[N+](CCCCS(=O)(=O)[O-])c2ccc3ccccc3c21 [ICG, indocyanine green]
- stability in aqueous solution [1]: breaks down quickly
- time for blood ICG concentration to decrease back to 0 [2]: about 20 minutes
- fraction of ICG injected in the bloodstream that binds to blood proteins [3]: more than 95%
